Literature values, collected in patent US7169819B2, “Pharmaceutical compositions of fenretinide having increased bioavailability and methods of using the same” (Childrens Hospital Los Angeles, priority 2000, dated 2007).

Tests used:
[1] = background statement
[2] = rodents

Solubility in aqueous solution [1]: minimally soluble
half-life [2]: 12 to 16 h
Structure (SMILES): CC1=C(/C=C/C(C)=C/C=C/C(C)=C/C(=O)Nc2ccc(O)cc2)C(C)(C)CCC1 [Fenretinide, all-trans-N-(4-hydroxyphenyl)retinamide]
